According to the kinase profiling compilation of Christmann-Franck et al. (2016):

Key:
Assay in all cases: KINOMEscan competition binding
Conditions in all cases: compound 1.0 µM
ADCK3 (human) = ADCK3 (human) (UniProt Q8NI60)
CSNK1G1 (human) = CSNK1G1 (human) (UniProt Q9HCP0)
FGR (human) = FGR (human) (UniProt P09769)
MET (human) = MET (human) (UniProt P08581)
CDKL3 (human) = CDKL3 (human) (UniProt Q8IVW4)
MATK (human) = MATK (human) (UniProt P42679)
MAP4K4 (human) = MAP4K4 (human) (UniProt O95819)
STK33 (human) = STK33 (human) (UniProt Q9BYT3)
MTOR (human) = MTOR (human) (UniProt P42345)
[1] = tested on: KIT (human), P10721 [D816H]
RPS6KA1 KD1 (human) = RPS6KA1 KD1 (human) (UniProt Q15418)
[2] = tested on: MET (human), P08581 [Y1235D]
GRK1 (human) = GRK1 (human) (UniProt Q15835)
STK17A (human) = STK17A (human) (UniProt Q9UEE5)
MAP3K13 (human) = MAP3K13 (human) (UniProt O43283)
CDKL2 (human) = CDKL2 (human) (UniProt Q92772)
CSF1R (human) = CSF1R (human) (UniProt P07333)
EPHB3 (human) = EPHB3 (human) (UniProt P54753)
[3] = tested on: EGFR (human), P00533 [L858R]
PI4KB (human) = PI4KB (human) (UniProt Q9UBF8)
PRKG2 (human) = PRKG2 (human) (UniProt Q13237)
PRKD1 (human) = PRKD1 (human) (UniProt Q15139)
EGFR (human) = EGFR (human) (UniProt P00533)
[4] = tested on: PIK3CA (human), P42336 [I800L]
INSRR (human) = INSRR (human) (UniProt P14616)
DCLK2 (human) = DCLK2 (human) (UniProt Q8N568)
MAP3K5 (human) = MAP3K5 (human) (UniProt Q99683)
RPS6KA1 KD2 (human) = RPS6KA1 KD2 (human) (UniProt Q15418)
MAP3K3 (human) = MAP3K3 (human) (UniProt Q99759)
CDK16 (human) = CDK16 (human) (UniProt Q00536)
[5] = tested on: RET (human), P07949 [V804L]
STK35 (human) = STK35 (human) (UniProt Q8TDR2)
PTK2B (human) = PTK2B (human) (UniProt Q14289)
PAK2 (human) = PAK2 (human) (UniProt Q13177)
[6] = tested on: EGFR (human), P00533 [752-759 del]
SRMS (human) = SRMS (human) (UniProt Q9H3Y6)
CASK (human) = CASK (human) (UniProt O14936)
[7] = tested on: PIK3CA (human), P42336 [E545A]
KIT (human) = KIT (human) (UniProt P10721)
CPK1 (P.falciparum) = tested on: CPK1 (P.falciparum)
STK16 (human) = STK16 (human) (UniProt O75716)
CSNK1D (human) = CSNK1D (human) (UniProt P48730)
MAP4K2 (human) = MAP4K2 (human) (UniProt Q12851)
MAP4K2 (human), sequence (Q12851 whole entry, looked up): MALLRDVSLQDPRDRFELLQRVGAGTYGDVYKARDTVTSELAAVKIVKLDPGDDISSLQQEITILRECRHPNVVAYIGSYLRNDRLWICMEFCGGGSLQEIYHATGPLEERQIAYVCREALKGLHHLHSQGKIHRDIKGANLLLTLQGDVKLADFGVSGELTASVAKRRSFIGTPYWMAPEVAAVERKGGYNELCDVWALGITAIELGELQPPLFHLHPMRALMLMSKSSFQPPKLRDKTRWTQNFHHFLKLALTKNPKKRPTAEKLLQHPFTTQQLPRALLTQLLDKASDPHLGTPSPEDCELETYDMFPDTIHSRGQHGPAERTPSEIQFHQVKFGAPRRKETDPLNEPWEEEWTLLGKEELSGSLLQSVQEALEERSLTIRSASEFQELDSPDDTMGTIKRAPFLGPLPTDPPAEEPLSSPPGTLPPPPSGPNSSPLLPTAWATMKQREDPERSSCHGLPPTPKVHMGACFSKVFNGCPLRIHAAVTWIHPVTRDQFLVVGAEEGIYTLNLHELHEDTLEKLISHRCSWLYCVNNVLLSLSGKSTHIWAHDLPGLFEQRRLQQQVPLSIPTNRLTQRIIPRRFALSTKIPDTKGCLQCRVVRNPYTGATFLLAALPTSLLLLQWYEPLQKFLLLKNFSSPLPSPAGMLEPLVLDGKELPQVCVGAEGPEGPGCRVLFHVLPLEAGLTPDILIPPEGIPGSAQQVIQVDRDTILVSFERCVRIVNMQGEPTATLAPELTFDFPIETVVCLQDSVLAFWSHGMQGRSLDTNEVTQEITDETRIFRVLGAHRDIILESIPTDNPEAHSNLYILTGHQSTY

INSRR (human), sequence (P14616 whole entry, looked up): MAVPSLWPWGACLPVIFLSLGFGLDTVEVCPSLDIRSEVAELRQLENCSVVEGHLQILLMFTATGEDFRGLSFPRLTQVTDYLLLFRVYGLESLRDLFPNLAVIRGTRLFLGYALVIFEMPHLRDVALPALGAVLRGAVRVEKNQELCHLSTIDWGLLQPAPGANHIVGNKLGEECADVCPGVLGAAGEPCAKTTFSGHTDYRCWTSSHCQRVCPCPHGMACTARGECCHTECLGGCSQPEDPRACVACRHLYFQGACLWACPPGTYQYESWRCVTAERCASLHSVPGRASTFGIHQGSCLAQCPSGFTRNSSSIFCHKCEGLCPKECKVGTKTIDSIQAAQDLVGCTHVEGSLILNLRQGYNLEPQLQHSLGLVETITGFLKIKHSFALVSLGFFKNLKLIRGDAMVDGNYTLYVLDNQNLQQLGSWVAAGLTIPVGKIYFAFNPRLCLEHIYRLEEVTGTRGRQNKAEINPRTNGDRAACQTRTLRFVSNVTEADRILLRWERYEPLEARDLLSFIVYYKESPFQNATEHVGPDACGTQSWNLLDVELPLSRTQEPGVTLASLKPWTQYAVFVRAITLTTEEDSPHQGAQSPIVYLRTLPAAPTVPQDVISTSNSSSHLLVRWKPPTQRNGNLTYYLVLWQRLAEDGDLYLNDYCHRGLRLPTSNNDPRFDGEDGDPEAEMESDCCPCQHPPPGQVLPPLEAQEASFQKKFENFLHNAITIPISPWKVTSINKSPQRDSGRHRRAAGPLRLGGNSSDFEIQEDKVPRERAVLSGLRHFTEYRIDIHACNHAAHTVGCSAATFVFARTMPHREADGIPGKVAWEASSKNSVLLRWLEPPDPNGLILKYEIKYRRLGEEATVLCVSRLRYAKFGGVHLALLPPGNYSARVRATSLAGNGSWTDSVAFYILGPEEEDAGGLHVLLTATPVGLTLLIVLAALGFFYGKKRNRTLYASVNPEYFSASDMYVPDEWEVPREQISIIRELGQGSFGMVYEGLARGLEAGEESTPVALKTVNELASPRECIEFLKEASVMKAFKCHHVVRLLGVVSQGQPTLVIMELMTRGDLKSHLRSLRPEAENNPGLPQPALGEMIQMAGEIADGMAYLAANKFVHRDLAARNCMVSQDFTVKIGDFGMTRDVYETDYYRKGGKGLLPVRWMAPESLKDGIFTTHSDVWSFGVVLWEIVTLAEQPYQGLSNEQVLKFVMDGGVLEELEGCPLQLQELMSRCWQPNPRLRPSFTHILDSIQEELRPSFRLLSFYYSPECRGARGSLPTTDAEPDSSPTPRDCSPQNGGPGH
FGR (human), sequence (P09769 whole entry, looked up): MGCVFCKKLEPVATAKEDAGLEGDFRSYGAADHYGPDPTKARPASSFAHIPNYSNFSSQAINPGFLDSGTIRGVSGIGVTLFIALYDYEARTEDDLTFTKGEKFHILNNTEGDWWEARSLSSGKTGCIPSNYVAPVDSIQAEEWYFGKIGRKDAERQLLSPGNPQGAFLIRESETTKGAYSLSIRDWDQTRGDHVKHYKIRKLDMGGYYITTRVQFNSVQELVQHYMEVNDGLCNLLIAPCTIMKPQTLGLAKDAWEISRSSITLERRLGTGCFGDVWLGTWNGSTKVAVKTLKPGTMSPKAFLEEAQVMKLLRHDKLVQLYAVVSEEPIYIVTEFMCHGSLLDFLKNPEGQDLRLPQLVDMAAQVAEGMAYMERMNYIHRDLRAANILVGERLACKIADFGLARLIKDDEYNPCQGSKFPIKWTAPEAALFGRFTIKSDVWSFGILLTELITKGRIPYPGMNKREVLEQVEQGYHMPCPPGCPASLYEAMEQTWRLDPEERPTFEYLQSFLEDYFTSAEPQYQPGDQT
CDKL3 (human), sequence (Q8IVW4 whole entry, looked up): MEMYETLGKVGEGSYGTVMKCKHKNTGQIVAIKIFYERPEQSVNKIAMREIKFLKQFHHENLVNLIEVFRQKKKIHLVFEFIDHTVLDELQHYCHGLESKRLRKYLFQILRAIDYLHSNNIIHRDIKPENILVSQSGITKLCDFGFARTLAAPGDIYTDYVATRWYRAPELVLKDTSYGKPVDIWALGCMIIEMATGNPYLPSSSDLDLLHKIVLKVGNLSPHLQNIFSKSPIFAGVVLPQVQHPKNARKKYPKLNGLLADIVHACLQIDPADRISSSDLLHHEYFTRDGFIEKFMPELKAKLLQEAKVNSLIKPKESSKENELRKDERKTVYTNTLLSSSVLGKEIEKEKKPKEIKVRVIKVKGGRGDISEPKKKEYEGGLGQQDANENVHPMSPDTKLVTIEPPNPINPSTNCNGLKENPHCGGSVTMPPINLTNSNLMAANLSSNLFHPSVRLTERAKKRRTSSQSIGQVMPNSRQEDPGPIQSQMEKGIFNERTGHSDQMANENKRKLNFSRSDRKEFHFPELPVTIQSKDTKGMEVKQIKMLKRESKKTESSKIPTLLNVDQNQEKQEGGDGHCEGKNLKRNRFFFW
GRK1 (human), sequence (Q15835 whole entry, looked up): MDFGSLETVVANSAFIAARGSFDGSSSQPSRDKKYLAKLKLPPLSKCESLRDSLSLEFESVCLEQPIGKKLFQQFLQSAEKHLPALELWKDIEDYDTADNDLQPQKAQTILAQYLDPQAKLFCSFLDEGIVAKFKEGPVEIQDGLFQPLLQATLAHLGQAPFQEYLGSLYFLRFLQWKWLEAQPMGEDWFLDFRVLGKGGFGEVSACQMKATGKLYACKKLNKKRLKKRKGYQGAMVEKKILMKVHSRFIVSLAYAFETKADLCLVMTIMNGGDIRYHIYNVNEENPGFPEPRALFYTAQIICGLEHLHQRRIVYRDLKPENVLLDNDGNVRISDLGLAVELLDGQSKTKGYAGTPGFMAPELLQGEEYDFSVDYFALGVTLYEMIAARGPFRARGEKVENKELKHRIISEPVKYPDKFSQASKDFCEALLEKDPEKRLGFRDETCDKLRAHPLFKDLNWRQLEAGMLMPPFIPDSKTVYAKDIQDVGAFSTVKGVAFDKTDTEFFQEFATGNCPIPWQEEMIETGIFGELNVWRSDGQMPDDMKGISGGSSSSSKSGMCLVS
PTK2B (human), sequence (Q14289 whole entry, looked up): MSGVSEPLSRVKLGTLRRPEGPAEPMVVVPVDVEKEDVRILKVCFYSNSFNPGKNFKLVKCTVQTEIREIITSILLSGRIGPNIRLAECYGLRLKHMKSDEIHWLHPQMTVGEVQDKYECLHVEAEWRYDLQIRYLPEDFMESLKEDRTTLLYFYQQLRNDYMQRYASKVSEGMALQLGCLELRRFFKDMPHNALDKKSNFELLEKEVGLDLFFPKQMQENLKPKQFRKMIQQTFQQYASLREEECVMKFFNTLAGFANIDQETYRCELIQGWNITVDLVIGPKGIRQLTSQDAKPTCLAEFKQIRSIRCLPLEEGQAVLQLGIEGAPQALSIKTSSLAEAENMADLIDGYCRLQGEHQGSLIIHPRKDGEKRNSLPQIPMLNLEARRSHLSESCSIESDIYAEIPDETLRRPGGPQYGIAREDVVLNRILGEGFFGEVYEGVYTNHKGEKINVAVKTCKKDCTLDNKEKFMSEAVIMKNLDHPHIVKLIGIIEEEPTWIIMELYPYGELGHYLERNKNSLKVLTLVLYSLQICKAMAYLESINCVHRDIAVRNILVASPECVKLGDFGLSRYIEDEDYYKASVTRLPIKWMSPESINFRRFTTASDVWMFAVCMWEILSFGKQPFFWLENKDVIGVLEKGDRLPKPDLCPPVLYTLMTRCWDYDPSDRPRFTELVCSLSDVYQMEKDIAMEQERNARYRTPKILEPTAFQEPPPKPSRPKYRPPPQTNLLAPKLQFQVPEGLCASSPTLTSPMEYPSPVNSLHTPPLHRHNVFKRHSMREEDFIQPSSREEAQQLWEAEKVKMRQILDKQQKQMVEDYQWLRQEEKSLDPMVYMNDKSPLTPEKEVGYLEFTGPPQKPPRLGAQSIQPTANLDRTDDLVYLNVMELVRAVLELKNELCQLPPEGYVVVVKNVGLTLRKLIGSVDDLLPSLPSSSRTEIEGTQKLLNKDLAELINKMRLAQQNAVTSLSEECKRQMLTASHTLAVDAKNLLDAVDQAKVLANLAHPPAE

COCCNCCCn1c(C(=O)CF)c(-c2ccc(C)cc2)c2c(N)ncnc21
kinase still bound, per cent of control (ADCK3 (human)): 100% | kinase still bound, per cent of control (CSNK1G1 (human)): 91% | kinase still bound, per cent of control (FGR (human)): 93% | kinase still bound, per cent of control (MET (human)): 97% | kinase still bound, per cent of control (CDKL3 (human)): 88% | kinase still bound, per cent of control (MATK (human)): 100% | kinase still bound, per cent of control (MAP4K4 (human)): 88% | kinase still bound, per cent of control (STK33 (human)): 100% | kinase still bound, per cent of control (MTOR (human)): 90% | kinase still bound, per cent of control [1]: 97% | kinase still bound, per cent of control (RPS6KA1 KD1 (human)): 78% | kinase still bound, per cent of control [2]: 81% | kinase still bound, per cent of control (GRK1 (human)): 100% | kinase still bound, per cent of control (STK17A (human)): 98% | kinase still bound, per cent of control (MAP3K13 (human)): 92% | kinase still bound, per cent of control (CDKL2 (human)): 87% | kinase still bound, per cent of control (CSF1R (human)): 89% | kinase still bound, per cent of control (EPHB3 (human)): 100% | kinase still bound, per cent of control [3]: 62% | kinase still bound, per cent of control (PI4KB (human)): 100% | kinase still bound, per cent of control (PRKG2 (human)): 98% | kinase still bound, per cent of control (PRKD1 (human)): 100% | kinase still bound, per cent of control (EGFR (human)): 96% | kinase still bound, per cent of control [4]: 100% | kinase still bound, per cent of control (INSRR (human)): 100% | kinase still bound, per cent of control (DCLK2 (human)): 100% | kinase still bound, per cent of control (MAP3K5 (human)): 100% | kinase still bound, per cent of control (RPS6KA1 KD2 (human)): 31% | kinase still bound, per cent of control (MAP3K3 (human)): 96% | kinase still bound, per cent of control (CDK16 (human)): 100% | kinase still bound, per cent of control [5]: 100% | kinase still bound, per cent of control (STK35 (human)): 99% | kinase still bound, per cent of control (PTK2B (human)): 100% | kinase still bound, per cent of control (PAK2 (human)): 85% | kinase still bound, per cent of control [6]: 90% | kinase still bound, per cent of control (SRMS (human)): 99% | kinase still bound, per cent of control (CASK (human)): 62% | kinase still bound, per cent of control [7]: 100% | kinase still bound, per cent of control (KIT (human)): 77% | kinase still bound, per cent of control (CPK1 (P.falciparum)): 89% | kinase still bound, per cent of control (STK16 (human)): 100% | kinase still bound, per cent of control (CSNK1D (human)): 82% | kinase still bound, per cent of control (MAP4K2 (human)): 94%
